The record followed here is PMC6934184, “Selective DNA-PKcs inhibition extends the therapeutic index of localized radiotherapy and chemotherapy” (The Journal of Clinical Investigation, 2019).

The subject of the data set is orthotopic Calu-6 lung tumors. Kind of data set: orthotopic Calu-6 lung tumor with thoracic radiation, bioluminescent imaging. It is filed as in vivo. The settings on record: single dose 30 mg/kg + 10 Gy thoracic radiation. How it is done: Orthotopic lung xenografts were generated following a published protocol ([54]) with minor modifications. Briefly, CD-1 nude mice (Charles River Laboratories) were anesthetized with 2% isoflurane and placed in the right lateral decubitus position. Luciferase-expressing Calu-6 cells (1 × 10^6) in 50 μL of 50% (vol/vol) Matrigel were injected into the left lateral thorax at the lateral dorsal axillary line, 1.5 cm above the lower rib line. The needle was advanced 5 mm into the thorax. After injection, the mouse was turned to the left lateral decubitus position for 5 minutes. […]
NSCLC subcutaneous xenografts were generated as previously described ( 53). […] Mouse weights and tumor volumes (1/2 x length x width x depth) were measured three times a week.
Targeted radiotherapy in subcutaneous and orthotopic NSCLC xenograft models When subcutaneous xenografts reached 100 mm3, mice were randomized into four groups (n = 7 - 11/group): (i) N-Methyl-2-pyrrolidone (NMP): 30% Encapsin : PEG400 (1:6:3 v/v/v) vehicle p.o. 30 minutes prior to mock radiation. […] The remaining mice were monitored for tumor growth until the sizes of tumo rs reached 400 mm 3 or up to 38 days after initiation of […]
Tumor growth in the remaining mice was monitored by bioluminescent imaging on days 0, 4, 8 and 15 post-treatment. […] Data were analyzed using LivingImage software (PerkinElmer). […]

On to `CN(C(=O)CN1CCOCC1)c1ccc2sc3c(-c4cccc5c(=O)cc(N6CC7CCC(C6)O7)oc45)cccc3c2c1` [NU5455], for which the tolerability entry is “well tolerated”. Also, the “antitumor effect of radiation (time to 4-fold increase in bioluminescent signal)” value (CD-1 nude mice) was “enhanced the antitumor effect of the radiation”.
